From US20040006236A1, “Diaminopropionic acid derivatives” (priority 1999, published 2004)
Structures can show the parent of a compound that is named as a salt. Where two headings read alike, the source gives them in different places.

Molecular target: T1, ICAM-1 binding to immobilized Mac-1 (Homo sapiens, UniProt P05107+P11215)
T1 construct: made in house; host or cells: transfected 293 cells (Mac-1)
Experiment: Mac-1/ICAM-1 screening assay (solid-phase ELISA)
Description: (b) Mac-1/ICAM-1 screening test: Mac-1/ICAM-1 antagonist activity, defined as the ability to compete with ICAM-1 binding to immobilized Mac-1, was quantitated by a solid-phase ELISA.
(§1) Membrane-bound Mac-1 derived from transfected 293 cells was coated onto 96-well microtiter plates (50 μL/well, 3 μg/mL Mac-1 in 20 mM Hepes, pH 7.2/0.14 M NaCl/1 mM MnCl2) overnight at 4° C. The plates were blocked with 100 μL/well of 0.5% BSA in 20 mM Hepes, pH 7.2/0.14 M NaCl/1 mM MnCl2 at 37° C. for 1 h and washed 3 times (120 μL each) with Binding Buffer (20 mM Hepes, pH 7.2/0.14 M NaCl/1 mM MnCl2/0.05% Tween 20). Test compounds were dissolved in 100% DMSO and diluted 1:50 in Binding Buffer plus 10% DMSO. A series of 1:4 dilutions were performed for each compound (concentration range, 0.12 nM-20 μM). Each dilution (25 μL/well) was added to the plates, followed by 25 μL/well of 5 dICAM-Ig (40 μg/mL in Binding Buffer). The plates were shaken vigorously for 1 min (room temperature), followed by gentle agitation for 2 h (37° C.), and washed with Binding Buffer (3 times, 120 μL each). HRP-conjugated goat anti-human IgG(Fc-specific) antibody (0.125 μg/mL in Binding Buffer plus 0.05% BSA) was added to each well (50 μL/well), followed by incubation for 1 h at 37° C. The plates were then washed 3 times with Binding Buffer (120 μL each). TMB solution (100 μL/well) was added to each well for color development for 10 min. The reaction was stopped with 1 M H3PO4 (100 μL/well) and the plates were read at 450 nm. The inhibitory activities of test compounds were determined by the IC50s.
as §1, with “Mac-1/ICAM-1 antagonist activity, defined as the ability to compete with ICAM-1 binding to immobilized Mac-1, was quantitated by a solid-phase ELISA. Membrane-bound” for “Membrane-bound”, “5dICAM-Ig” for “5 dICAM-Ig”, “nm.” for “nm. The inhibitory activities of test compounds were determined by the IC50s.”

[1] = read-out: Mac-1/ICAM-1 Protein-Protein Assay IC50
[2] = Mac-1/ICAM-1 Protein-Protein Assay IC50

T1 sequence (P05107 23-769, other chains not shown): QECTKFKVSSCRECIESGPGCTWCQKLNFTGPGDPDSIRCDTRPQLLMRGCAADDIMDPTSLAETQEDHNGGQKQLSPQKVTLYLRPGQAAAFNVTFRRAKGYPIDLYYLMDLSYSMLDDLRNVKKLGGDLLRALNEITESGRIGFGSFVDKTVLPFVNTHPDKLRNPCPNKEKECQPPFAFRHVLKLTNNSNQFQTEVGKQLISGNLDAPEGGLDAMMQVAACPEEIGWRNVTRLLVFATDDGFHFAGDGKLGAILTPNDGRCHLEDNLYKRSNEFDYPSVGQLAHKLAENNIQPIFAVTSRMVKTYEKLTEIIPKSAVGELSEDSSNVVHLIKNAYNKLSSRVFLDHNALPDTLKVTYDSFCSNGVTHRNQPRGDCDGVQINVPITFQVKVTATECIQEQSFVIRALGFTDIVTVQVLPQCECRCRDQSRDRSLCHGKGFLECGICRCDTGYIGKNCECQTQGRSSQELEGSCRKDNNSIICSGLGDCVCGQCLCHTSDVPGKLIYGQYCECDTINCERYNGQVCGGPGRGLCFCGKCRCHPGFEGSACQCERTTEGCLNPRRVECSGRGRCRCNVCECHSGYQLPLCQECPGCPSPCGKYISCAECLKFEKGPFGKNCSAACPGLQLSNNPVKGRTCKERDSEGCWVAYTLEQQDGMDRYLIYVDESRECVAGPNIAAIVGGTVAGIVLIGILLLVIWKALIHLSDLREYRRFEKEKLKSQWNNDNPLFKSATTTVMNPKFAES

SMILES | IC50 [1] | IC50 [2]
O=C(CC1CCCCC1)NC[C@H](NC(=O)c1ccc(C(=O)NCc2cccc(O)c2)cc1Cl)C(=O)O [Example 78] | 0.094 µM | –
O=C(Cc1ccccc1)NC[C@H](NC(=O)c1ccc(C(=O)NCc2cccc(O)c2)cc1Cl)C(=O)O [Example 79] | 0.074 µM | –
COc1ccc(CC(=O)NC[C@H](NC(=O)c2ccc(C(=O)NCc3cccc(O)c3)cc2Cl)C(=O)O)cc1 [Example 80] | 0.134 µM | –
O=C(Cc1ccc([N+](=O)[O-])cc1)NC[C@H](NC(=O)c1ccc(C(=O)NCc2cccc(O)c2)cc1Cl)C(=O)O [Example 81] | 0.058 µM | –
O=C(Cc1cccc(C(F)(F)F)c1)NC[C@H](NC(=O)c1ccc(C(=O)NCc2cccc(O)c2)cc1Cl)C(=O)O [Example 82] | 0.062 µM | –
O=C(Cc1ccc([N+](=O)[O-])cc1[N+](=O)[O-])NC[C@H](NC(=O)c1ccc(C(=O)NCc2cccc(O)c2)cc1Cl)C(=O)O [Example 83] | – | 0.058 µM
O=C(Cc1cccs1)NC[C@H](NC(=O)c1ccc(C(=O)NCc2cccc(O)c2)cc1Cl)C(=O)O [Example 84] | 0.06 µM | –
O=C(NCc1cccc(O)c1)c1ccc(C(=O)N[C@@H](CNC(=O)C(c2ccccc2)c2ccccc2)C(=O)O)c(Cl)c1 [Example 86] | 0.179 µM | –
O=C(Cc1ccc2ccccc2c1)NC[C@H](NC(=O)c1ccc(C(=O)NCc2cccc(O)c2)cc1Cl)C(=O)O [Example 87] | 0.087 µM | –
O=C(CC1c2ccccc2-c2ccccc21)NC[C@H](NC(=O)c1ccc(C(=O)NCc2cccc(O)c2)cc1Cl)C(=O)O [Example 88] | 0.273 µM | –
O=C(C[n+]1csc2ccccc21)NC[C@H](NC(=O)c1ccc(C(=O)NCc2cccc(O)c2)cc1Cl)C(=O)O [Example 89] | 0.464 µM | –
O=C(CSc1ncccn1)NC[C@H](NC(=O)c1ccc(C(=O)NCc2cccc(O)c2)cc1Cl)C(=O)O [Example 91] | 0.174 µM | –
CC(C)(C)C(=O)NC[C@H](NC(=O)c1ccc(C(=O)NCc2cccc(O)c2)cc1Cl)C(=O)O [Example 92] | 0.048 µM | –
O=C(NCc1cccc(O)c1)c1ccc(C(=O)N[C@@H](CNC(=O)C23CC4CC(CC(C4)C2)C3)C(=O)O)c(Cl)c1 [Example 93] | 0.057 µM | –
O=C(CCc1ccccc1)NC[C@H](NC(=O)c1ccc(C(=O)NCc2cccc(O)c2)cc1Cl)C(=O)O [Example 94] | 0.042 µM | –
O=C(NCc1cccc(O)c1)c1ccc(C(=O)N[C@@H](CNC(=O)c2cc([N+](=O)[O-])cc([N+](=O)[O-])c2)C(=O)O)c(Cl)c1 [Example 129] | – | 0.037 µM
O=C(NCc1cccc(O)c1)c1ccc(C(=O)N[C@@H](CNC(=O)c2cnccn2)C(=O)O)c(Cl)c1 [Example 170] | 0.116 µM | –
O=C(NCc1cccc(O)c1)c1ccc(C(=O)N[C@@H](CNC(=O)c2cnc3ccccc3c2)C(=O)O)c(Cl)c1 [Example 183] | 0.222 µM | –
O=C(NCc1cccc(O)c1)c1ccc(C(=O)N[C@@H](CNC(=O)c2cc(=O)c3ccccc3o2)C(=O)O)c(Cl)c1 [Example 187] | 0.056 µM | –
O=C(NCc1cccc(O)c1)c1ccc(C(=O)N[C@@H](CNC(=O)c2ccc3c(c2)S(=O)(=O)c2ccccc2C3=O)C(=O)O)c(Cl)c1 [Example 192] | 0.04 µM | –
CC(=O)NC[C@H](NC(=O)c1ccc(C(=O)NCc2cccc(O)c2)cc1Cl)C(=O)O [Example 193] | 0.049 µM | –
CC(C)C(=O)NC[C@H](NC(=O)c1ccc(C(=O)NCc2cccc(O)c2)cc1Cl)C(=O)O [Example 194] | 0.036 µM | –
CC(C)CC(=O)NC[C@H](NC(=O)c1ccc(C(=O)NCc2cccc(O)c2)cc1Cl)C(=O)O [Example 195] | 0.047 µM | –

SMILES | IC50 [1] | IC50 [2]
CSCC[C@H](N)C(=O)NC[C@H](NC(=O)c1ccc(C(=O)NCc2cccc(O)c2)cc1Cl)C(=O)O [Example 197] | 0.038 µM | –
NCCCC[C@H](N)C(=O)NC[C@H](NC(=O)c1ccc(C(=O)NCc2cccc(O)c2)cc1Cl)C(=O)O [Example 198] | 0.048 µM | –
N[C@@H](Cc1ccccc1)C(=O)NC[C@H](NC(=O)c1ccc(C(=O)NCc2cccc(O)c2)cc1Cl)C(=O)O [Example 199] | 0.036 µM | –
NC(=O)C[C@H](N)C(=O)NC[C@H](NC(=O)c1ccc(C(=O)NCc2cccc(O)c2)cc1Cl)C(=O)O [Example 200] | 0.033 µM | –
N[C@@H](Cc1c[nH]c2ccccc12)C(=O)NC[C@H](NC(=O)c1ccc(C(=O)NCc2cccc(O)c2)cc1Cl)C(=O)O [Example 201] | 0.049 µM | –
N[C@@H](CCC(=O)NC[C@H](NC(=O)c1ccc(C(=O)NCc2cccc(O)c2)cc1Cl)C(=O)O)C(=O)O [Example 202] | 0.037 µM | –
O=C(NC[C@H](NC(=O)c1c(Cl)cccc1Cl)C(=O)O)c1ccccc1 [Example 219] | 0.319 µM | –
O=C(NC[C@H](NC(=O)c1c(Cl)cccc1Cl)C(=O)O)c1ccc(Br)s1 [Example 223] | 0.082 µM | –
O=C(NC[C@H](NC(=O)c1c(F)cccc1Cl)C(=O)O)c1ccc(Br)s1 [Example 224] | 0.377 µM | –
O=C(NC[C@H](NC(=O)c1c(F)cccc1Cl)C(=O)O)c1ccc2[nH]nnc2c1 [Example 226] | 0.273 µM | –
Cc1nnsc1C(=O)NC[C@H](NC(=O)c1ccc(C(=O)NCc2cccc(O)c2)cc1Cl)C(=O)O [Example 255] | 0.041 µM | –
COc1c(C(=O)NC[C@H](NC(=O)c2ccc(C(=O)NCc3cccc(O)c3)cc2Cl)C(=O)O)csc1Cl [Example 258, N-[2-chloro-4-[[[(3-hydroxyphenyl)methyl]amino]carbonyl]benzoyl]-3-(5-chloro-4-methoxythiophene-3-carbonyl)amino-L-alanine] | 0.026 µM | –
NC1(C(=O)NC[C@H](NC(=O)c2ccc(C(=O)NCc3cccc(O)c3)cc2Cl)C(=O)O)CCCC1 [Example 263] | 0.027 µM | –
N[C@H]1CC[C@@H](C(=O)NC[C@H](NC(=O)c2ccc(C(=O)NCc3cccc(O)c3)cc2Cl)C(=O)O)CC1 [Example 264] | 0.025 µM | –
Nc1cccn(CC(=O)NC[C@H](NC(=O)c2ccc(C(=O)NCc3cccc(O)c3)cc2Cl)C(=O)O)c1=O [Example 266] | 0.306 µM | –
O=C(O)c1cccc(C(=O)NC[C@H](NC(=O)c2ccc(C(=O)NCc3cccc(O)c3)cc2Cl)C(=O)O)c1 [Example 297] | 0.081 µM | –
O=C(O)CCCC(=O)NC[C@H](NC(=O)c1ccc(C(=O)NCc2cccc(O)c2)cc1Cl)C(=O)O [Example 298] | 0.298 µM | –
O=C(NCc1cccc(O)c1)c1ccc(C(=O)N[C@@H](CNC(=O)c2cccs2)C(=O)O)c(Cl)c1 [Example 305, N-[2-chloro-4-[[[(3-hydroxyphenyl)methyl]amino]carbonyl]benzoyl]-3-(thiophene-2-carbonyl)amino-L-alanine, sodium salt] | 0.019 µM | –
O=C(NCc1cccc2[nH]ccc12)c1ccc(C(=O)N[C@@H](CNC(=O)c2ccoc2)C(=O)O)c(Cl)c1 [Example 316] | 0.024 µM | –
Cc1ccc(C(=O)NC[C@H](NC(=O)c2ccc(C(=O)NCc3cccc4[nH]ccc34)cc2Cl)C(=O)O)s1 [Example 317] | 0.036 µM | –
O=C(NCc1cccc2c1CCN2)c1ccc(C(=O)N[C@@H](CNC(=O)c2cccs2)C(=O)O)c(Cl)c1 [Example 318, 3-(thiophene-2-carbonyl)amino-N-[2-chloro-4-[[(2,3-dihydro-1H-indol-4-ylmethyl)amino]carbonyl]benzoyl]-L-alanine] | 0.098 µM | –
O=C(CCc1cccc(O)c1)c1ccc(C(=O)N[C@@H](CNC(=O)c2cccs2)C(=O)O)c(Cl)c1 [Example 319, N-[2-chloro-4-[1-oxo-3-(3-hydroxyphenyl)propyl]benzoyl]-3-(thiophene-2-carbonyl)amino-L-alanine] | 0.043 µM | –
O=C(NC[C@H](NC(=O)c1ccc(-n2nnnc2NCc2cccc(O)c2)cc1Cl)C(=O)O)c1cccs1 [Example 321] | 0.076 µM | –
